Tested on: calcium ionophore-induced LTB4 biosynthesis
Test: Inhibition of calcium ionophore (A23187)-induced LTB4 biosynthesis in human whole blood
Assay type: cell-based
Settings: human heparinized whole blood; 15 min preincubation at 37° C.; A23187 8.3 μM, 30 minutes; LTB4 by radioimmunoassay; read-out: IC50, inhibition of leukotriene biosynthesis in human whole blood
Method: Inhibition of leukotriene biosynthesis was evaluated in an assay, involving calcium ionophore-induced LTB4 biosynthesis expressed human whole blood. Human heparinized whole blood was preincubated with test compounds or vehicle for 15 rain at 37° C. followed by calcium ionophore A23187 challenge (final concentration of 8.3 μM) and the reaction terminated after 30 minutes by adding two volumes of methanol containing prostaglandin B2 as an internal recovery standard. The methanol extract was analyzed for LTB4 using a commercially available radioimmunoassay.

| IC50 [nM] | SMILES |
| --- | --- |
| 40 | C[C@H](/C=C\c1ccc(Cc2ccc(F)cc2)s1)N(O)C(N)=O [Example 1, Z-(R)-N-[3-(5-(4-Fluorophenylmethyl)-thien-2-yl)-1-methyl-2-propenyl]-N-hydroxyurea] |
| 180 | C[C@H](/C=C/c1ccc(Cc2ccc(F)cc2)s1)N(O)C(N)=O [Example 2, E-(R)-N-[3-(5-(4-Fluorophenylmethyl)-thien-2-yl)-1-methyl-2-propenyl]-N-hydroxyurea] |
